Values of other authors as cited in article PMC10017685 (Nature Communications, 2023).

system: human erythrocytes; design: method as in DBAASP; conditions: cited from earlier work

Sequence | Class (dedicated toxicity dataset used for toxicity classifier evaluation)
GLLKKLLKKLLKKL [DBAASP_13973] | 1
KIAGKIAKIAGKIA [DBAASP_10129] | 0
IAGKIAKIAGKIAKIAGKIA [DBAASP_14993] | 1

same assay, conditions: toxicity class label 1 or 0, meaning of the labels not given; DBAASP HC50 data, human erythrocytes; ref DBAASP; cited from earlier work

Sequence | Class (dedicated toxicity dataset used for toxicity classifier evaluation)
GWRTLLKKAEVKTVGKLALKHYL [DBAASP_1409] | 0
GWLDVAKKIGKAAFNVAKNFI [DBAASP_7670] | 1
HFLGTLVNLKKKIL [DBAASP_5024] | 0
WKRRIKIWKKIR [DBAASP_10625] | 0
VRRFPWAWPFLRR [DBAASP_14266] | 0
GIWDTIKSMGKVFAGKIKQNL [DBAASP_702] | 0
FLKGIVGMLGKLW [DBAASP_9113] | 1
SKVWRHWRRFWHRAHRKL [DBAASP_14980] | 0
RWCVYAYVRVRGVLVRYRRCW [DBAASP_13517] | 0
KIWFQNKKMKWKK [DBAASP_8802] | 0
HFLKTLVNLAKKIL [DBAASP_5017] | 0
RWGKWFKKATHVGKHVGKAALTAYL [DBAASP_997] | 0
FIHHIIGGLFSVGKHIHSLIHRRRR [DBAASP_17379] | 1
FLPILAGLAAKIVPKLFCLATKKC [DBAASP_2201] | 1
GWKKWLRKGAKHLGQAAIKGLAS [DBAASP_1435] | 0
FFPIVGKLLSGLF [DBAASP_1882] | 0
FLPFLLSALPKVFCFFSKKC [DBAASP_6702] | 1
GIKEFAHSLGKFGKAFVGGILNQ [DBAASP_3817] | 0
GIIKKIIKKIIKKI [DBAASP_4594] | 0
GMMKRIKTMM [DBAASP_8621] | 0
RFRRLRKKTRKRLKKI [DBAASP_7143] | 0
GRFKRFRKKFKKLFKKLS [DBAASP_628] | 0

Sequence | Class (dedicated toxicity dataset used for toxicity classifier evaluation)
AILTTLANWARKFL [DBAASP_3561] | 0
RIRFPWPWRWPWWPRFRG [DBAASP_8616] | 0
VRRFPAAAPFLRR [DBAASP_14271] | 0
FLPIIAGAAAKVVEKIFCAISKKC [DBAASP_4217] | 1
GLFDIIKKIAESF [DBAASP_779] | 0
GVWSTVLGGLKKFAKGGLEAIVNPK [DBAASP_3155] | 0
GWGSFFKKAAHVGKHVGKAALTHYL [DBAASP_1004] | 0
GWASSIGSILGKFAKGGAQAFLQPK [DBAASP_5714] | 0
GLKKIFKAGLGSLVKGIAAHVAS [DBAASP_4408] | 0
CVKVRVKVGSGVKVRVKVC [DBAASP_349] | 0
FLPFLKSILGKIL [DBAASP_13349] | 0
WWWLKKIW [DBAASP_9820] | 0
RFCVYAYVRVRGVLVRYRRCF [DBAASP_13515] | 0
GWLPTFGKILRKAMQLGPKLIQPI [DBAASP_5715] | 0
FLSIIAKVLGSLF [DBAASP_3104] | 1
GLKALKKVFQGIHKAIKLINNHVQ [DBAASP_6928] | 0
IIKKIIKKIIKK [DBAASP_13883] | 0
GLLSRIKTLL [DBAASP_8598] | 0
FLPLKKLRFGLL [DBAASP_5722] | 0
ALWKTMLKKLGTMALHAGK [DBAASP_10088] | 0
FLSTLLNVASKVVPTLFCKITKKC [DBAASP_1891] | 0
SAVGRHLRRFGLRKHRKH [DBAASP_7659] | 0

Sequence | Class (dedicated toxicity dataset used for toxicity classifier evaluation)
FLGSIVGALASALPSLISKIRN [DBAASP_2209] | 1
IKKIVSKIKKVLK [DBAASP_7246] | 0
GFKDLLKGAAKALVKTVKF [DBAASP_4910] | 0
CVKVQVKVGSGVKVQVKVC [DBAASP_350] | 0
ILKKLLSTAAGLLSNL [DBAASP_4360] | 0
KIFGAIWPLALGALKNLIK [DBAASP_7010] | 1
WRRRRRRRR [DBAASP_8812] | 0
GFKRIVQRIKDFLRNLV [DBAASP_6070] | 0
GILSSLWKKPKKIIAK [DBAASP_8919] | 0
GLLKRIKTLL [DBAASP_3116] | 0
GFLGSLLKTGLKVGSNLL [DBAASP_2293] | 0
SAVGRHGRRFGLRKHRKH [DBAASP_3348] | 0
KWAVRIIRKFIKGFIS [DBAASP_13726] | 0
GLLTRIKTLL [DBAASP_8596] | 0
GLFDVIKKVLKKIGGL [DBAASP_8592] | 1
GLLGPLLKIAAKVGKKLL [DBAASP_4925] | 0
VKKFPWWWAFLKK [DBAASP_11305] | 0
FLSLIPHIVSGVASIAKHF [DBAASP_3889] | 0
GLKLLLSLGLKLL [DBAASP_13848] | 0
DIFGAIWPLALGALKNLIK [DBAASP_9407] | 1
HFLGTLVNLAKKKL [DBAASP_5025] | 0
GLNALKKVFQGIHEAIKLINNHVQ [DBAASP_3355] | 0

Sequence | Class (dedicated toxicity dataset used for toxicity classifier evaluation)
ILPWKWPWWPWRR [DBAASP_491] | 0
GLKKIFKAGLGSLVKGIAAHVAS [DBAASP_4416] | 1
SILPTIVSFLSKVF [DBAASP_13348] | 1
KRRVRWIIW [DBAASP_17712] | 0
FLSLLPHIASGIASLVSKF [DBAASP_12382] | 1
FLPLIASLAANFVPKIFCKITKKC [DBAASP_3563] | 0
GLASTIGSLLGKFAKGGAQAFLQPK [DBAASP_2288] | 0
FWSTIWNAAKSLI [DBAASP_18164] | 1
GLLGPLLKIAAKVGSNLL [DBAASP_3157] | 0
FLPMLAGLAANFLPKIVCKITKKC [DBAASP_1892] | 1
GLKKIFKAGLGSLVKGIKAHVAS [DBAASP_4414] | 0
KIKWILKYWKWS [DBAASP_10700] | 0
FLSLIPKAISAVSALANHF [DBAASP_12626] | 0
IKKILSKIKKLL [DBAASP_10745] | 0
FLKGIVGMLGKLF [DBAASP_8203] | 1
FLPIVAGLAANFLPKIVCKITKKC [DBAASP_1889] | 1
GLFDKWAWWRWRR [DBAASP_10050] | 0
FLPGILKVAANVVPGVICAITKKC [DBAASP_16462] | 0
GLLRASSKWGRKYYVDLAGCAKA [DBAASP_12529] | 0
